Assay results from PMC3563091 (Bioorganic & medicinal chemistry letters, 2012).

Biological target: CMG2 (Capillary Morphogenesis Gene protein 2) (Homo sapiens, UniProt P58335, R40C)
Assay type: binding

Chain of CMG2 (Capillary Morphogenesis Gene protein 2) (P58335 34-489 R40C limits assumed): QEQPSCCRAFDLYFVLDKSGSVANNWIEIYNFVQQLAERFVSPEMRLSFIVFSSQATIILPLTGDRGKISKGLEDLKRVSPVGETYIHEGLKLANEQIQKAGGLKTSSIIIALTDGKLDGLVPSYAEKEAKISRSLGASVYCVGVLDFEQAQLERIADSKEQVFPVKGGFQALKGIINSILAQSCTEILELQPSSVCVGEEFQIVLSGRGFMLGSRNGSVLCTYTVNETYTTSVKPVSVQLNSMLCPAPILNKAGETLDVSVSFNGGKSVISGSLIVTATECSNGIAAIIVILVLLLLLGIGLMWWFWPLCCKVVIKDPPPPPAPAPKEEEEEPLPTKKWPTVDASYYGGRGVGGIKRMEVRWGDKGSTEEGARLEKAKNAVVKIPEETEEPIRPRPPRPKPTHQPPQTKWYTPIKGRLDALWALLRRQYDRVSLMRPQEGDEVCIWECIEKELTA

In the case of 7-O-methyl neolambertellin [compound 1], the IC50 is reported as 500 nM.
